Measurements taken from patent US7737288B2, “Non-steroidal androgen receptor modulators, preparation process, pharmaceutical composition and use thereof” (Shanghai Institute of Materia Medica Chinese Academy of …, priority 2005, dated 2010).
Where two headings read alike, the source gives them in different places.

How the values were obtained:
[1] = molecular target: T1, androgen receptor (Homo sapiens, UniProt P10275); experiment: Test of receptor binding activity ([3H]DHT competition, hydroxyapatite); settings: competition with 5 nM [3H]DHT, overnight at 4° C.
T1 construct: made in house; host or cells: insect cells (baculovirus expression system)
T1 sequence (P10275 1-920): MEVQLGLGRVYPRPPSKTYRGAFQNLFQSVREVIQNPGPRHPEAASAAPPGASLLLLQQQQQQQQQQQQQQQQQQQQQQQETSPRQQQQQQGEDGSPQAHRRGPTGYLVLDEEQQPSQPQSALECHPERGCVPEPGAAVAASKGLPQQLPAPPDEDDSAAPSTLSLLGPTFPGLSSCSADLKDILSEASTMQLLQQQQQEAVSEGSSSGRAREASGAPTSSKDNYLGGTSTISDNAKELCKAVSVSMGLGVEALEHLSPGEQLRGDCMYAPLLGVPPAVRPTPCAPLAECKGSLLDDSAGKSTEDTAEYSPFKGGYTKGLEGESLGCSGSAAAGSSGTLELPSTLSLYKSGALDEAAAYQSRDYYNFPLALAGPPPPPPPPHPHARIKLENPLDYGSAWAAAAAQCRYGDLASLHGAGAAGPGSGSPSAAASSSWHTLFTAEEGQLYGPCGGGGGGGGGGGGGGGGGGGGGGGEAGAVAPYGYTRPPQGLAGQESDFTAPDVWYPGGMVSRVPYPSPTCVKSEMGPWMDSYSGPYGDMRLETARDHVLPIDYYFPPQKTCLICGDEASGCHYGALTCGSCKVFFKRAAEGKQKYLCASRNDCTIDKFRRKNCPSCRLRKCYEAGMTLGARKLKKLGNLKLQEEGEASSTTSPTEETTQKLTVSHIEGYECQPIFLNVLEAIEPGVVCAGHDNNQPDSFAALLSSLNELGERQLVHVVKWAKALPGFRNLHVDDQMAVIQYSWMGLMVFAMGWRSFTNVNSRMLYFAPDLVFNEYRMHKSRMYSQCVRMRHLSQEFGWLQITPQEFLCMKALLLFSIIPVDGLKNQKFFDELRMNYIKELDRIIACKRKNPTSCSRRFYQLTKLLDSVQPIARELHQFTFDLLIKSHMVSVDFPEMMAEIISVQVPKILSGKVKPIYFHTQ
Experimental: Then the resultant mixture was added into the plates with a volume of 195 μl each well immediately after mixed thoroughly, and incubated overnight at 4° C. After the incubation was completed, 50 μl of hydroxyapatite (HA) solution (25% HA, 25 mM Na3PO4, pH7.4) was added to each well of the calandria, uniformly mixed by shaking, and incubated for 10 minutes, during the period it was shaken once every 3 minutes. The centrifugation was conducted at 2500 rpm for 3 minutes, the supernatant was sucked out, and the precipitate was reserved. Two hundred μl of the assay buffer was added into each well, the precipitate is avoided to be shaken as far as possible, and the centrifugation was conducted for 3 minutes again. The supernatant was sucked out, and the precipitate was reserved. The centrifugation was repeated once, the supernatant was sucked out, and the precipitate was reserved. 300 μl of scintillation fluid was added to each well.

[2] = system: androgen receptor; experiment: Test of reporter gene expression (luciferase) in transfected MDA-MB-453 cells; assay type: cell-based, human
[3] = system: LNCaP cells; experiment: Test of prostate cancer cell proliferation induced by DHT (MTT); assay type: cell-based; settings: Homo sapiens, 144 h, read-out: IC50, inhibition of LNCaP cell proliferation stimulated by DHT
Experimental: LNCaP cells were cultured in RPMI1640 medium containing 10% FBS and 2 mM L-glutamine. The above medium was replaced by RPMI1640 medium containing 5% CD-FBS one day before experiment. When the cells grew to 90% confluence, the cells were added to 96-well plate with 4000 cells/90 μL/well after dissociated with trypsin, and were cultured at 37° C. overnight. The compounds to be tested were added to the cells with 10 μL/well after diluted to certain concentrations. […]. […] MTT solution (5 mg/mL) was added with 20 μL/well before the culture was completed. Light absorption values at 560 nm were measured with the reference wavelength of 690 nm.

[4] = read-out: Receptor binding (IC50)

| SMILES | melting point [°C] | IC50 [1, 4] [nM] | other results |
| --- | --- | --- | --- |
| Cc1ccc(C(=O)CC(Nc2ccc(Cl)cc2)c2ccccc2)cc1 (stereo not drawn) [Example 1, 3-phenyl-3-(4-chloroanilino)-1-(4-methylphenyl)-1-acetone] | 152 to 154 | – | – |
| Cc1ccc(C(=O)CC(Nc2ccc([N+](=O)[O-])cc2)c2ccccc2)cc1 (stereo not drawn) [Example 3, 3-phenyl-3-(4-nitroanilino)-1-(4-methylphenyl)-1-acetone] | 157 to 159 | – | – |
| Cc1ccc(C(=O)CC(Nc2ccc(C(=O)O)cc2)c2ccccc2)cc1 (stereo not drawn) [Example 4, 3-phenyl-3-(4-carboxylanilino)-1-(4-methylphenyl)-1-acetone] | 208 to 210 | – | – |
| Cc1ccc(C(=O)CC(Nc2ccccc2)c2ccc(C)cc2)cc1 (stereo not drawn) [Example 5, 3-(4-methylphenyl)-3-anilino-1-(4-methylphenyl)-1-acetone] | 131 to 132 | – | – |
| O=C(CC(Nc1ccc([N+](=O)[O-])cc1)c1ccccc1)c1ccc(Cl)cc1 (stereo not drawn) [MWW6003] | – | 2.93 | androgen receptor antagonistic activities, IC50 compared with bicalutamide [2]: close to the androgen receptor antagonist bicalutamide |
| O=C(CC(Nc1ccc([N+](=O)[O-])cc1)c1ccccc1)c1ccc(Br)cc1 (stereo not drawn) [MWW6015] | – | 2.85 | – |
| O=C(CC(Nc1ccc([N+](=O)[O-])c(C(F)(F)F)c1)c1ccccc1)c1ccc(Cl)cc1 (stereo not drawn) [MWW6016] | – | – | IC50 ([1]; Receptor binding (IC50, nM)): 9.49 nM |
| O=C(CC(Nc1ccc(Cl)c([N+](=O)[O-])c1)c1ccccc1)c1ccc(Cl)cc1 (stereo not drawn) [MWW6021] | – | 6.45 | – |
| O=C(CC(Nc1ccc(Cl)c([N+](=O)[O-])c1)c1ccccc1)c1ccc(Br)cc1 (stereo not drawn) [MWW6022] | – | 4.31 | – |
| O=C(CC(Nc1ccc(Cl)c([N+](=O)[O-])c1)c1ccco1)c1ccc(Cl)cc1 (stereo not drawn) [MWW6030] | – | 3.25 | – |
| O=C(CC(Nc1ccc(Cl)c([N+](=O)[O-])c1)c1ccco1)c1ccc(Br)cc1 (stereo not drawn) [MWW6031] | – | 3.61 | – |
| O=C(CC(Nc1ccc([N+](=O)[O-])cc1)c1ccco1)c1ccc(Cl)cc1 (stereo not drawn) [MWW6032] | – | – | androgen receptor antagonistic activities, IC50 compared with bicalutamide [2]: close to the androgen receptor antagonist bicalutamide; IC50 [3]: 2280 nM |
| O=C(CC(Nc1ccc([N+](=O)[O-])cc1)c1ccco1)c1ccc(Br)cc1 (stereo not drawn) [MWW6033] | – | 3.01 | – |
